This passage reports EC50 and CC50 results from patent US20150158862A1, “1,3-DIHYDRO-2H-BENZIMIDAZOL-2-ONE DERIVATIVES SUBSTITUTED WITH HETEROCYCLES AS RESPIRATORY SYNCYTIAL VIRUS ANTIVIRAL AGENTS” (Janssen R&D Ireland, priority 2012, published 2015).

For orientation: EC50 means the concentration needed to bring the measured effect to its halfway point. Broadly, the CC50 is the concentration that lowers cell viability or growth by half.

The test system of one data set is rgRSV224 virus. Kind of data set: Antiviral activity: inhibition of GFP expression of rgRSV224 virus in HeLa cells. Conditions: human respiratory syncytial virus, 72 h, read-out: WT activity EC50. In kind it is cell-based, respiratory syncytial virus (RSV). As for the experimental part: (§1) Black 96-well clear-bottom microtiter plates (Corning, Amsterdam, The Netherlands) were filled in duplicate using a customized robot system with serial 4-fold dilutions of compound in a final volume of 50 μl culture medium [RPMI medium without phenol red, 10% FBS, 0.04% gentamycin (50 mg/ml) and 0.5% DMSO]. Then, 100 μl of a HeLa cell suspension (5×10^4 cells/ml) in culture medium was added to each well followed by the addition of 50 μl rgRSV224 (MOI=0.02) virus in culture medium using a multidrop dispenser (Thermo Scientific, Erembodegem, Belgium). rgRSV224 virus is an engineered virus that includes an additional GFP gene (Hallak et al, 2000) and was in-licensed from the NIH (Bethesda, Md., USA). Medium, virus- and mock-infected controls were included in each test. Cells were incubated at 37° C. in a 5% CO2 atmosphere. Three days post-virus exposure, viral replication was quantified by measuring GFP expression in the cells by a MSM laser microscope (Tibotec, Beerse, Belgium). The EC50 was defined as the 50% inhibitory concentration for GFP expression. In parallel, compounds were incubated for three days in a set of white 96-well microtitier plates (Corning) and the cytotoxicity of compounds in HeLa cells was determined by measuring the ATP content of the cells using the ATPlite kit (PerkinElmer, Zaventem, Belgium) according to the manufacturer's instructions. The CC50 was defined as the 50% concentration for cytotoxicity.

A further data set is described as follows: in vitro. Type of data set: cell-based. The following applies: human. The procedure: as §1

`CS(=O)(=O)CCCn1c(Cn2c(=O)n(CC(F)(F)F)c3c(Cl)cccc32)cc2cc(Cl)ccc21` [Compound P1, 4-chloro-1-((5-chloro-1-(3-(methylsulfonyl)-propyl)-1H-indol-2-yl)methyl)-3-(2,2,2-trifluoroethyl)-1H-benzo[d]imidazo-2(3H)-one]: in the data set with rgRSV224 virus, the concentration giving a half-maximal response (EC50) stood at 398 nM. In “in vitro”, this compound displayed a half-maximal cytotoxic concentration (CC50) at 3 days above 100 µM.

On to `O=c1n(Cc2cc3cc(Cl)ccc3n2CCCC(F)(F)F)c2cncc(Cl)c2n1CC(F)(F)F` [Compound P2], for which the EC50 with rgRSV224 virus is 100 nM. The 50% cytotoxic concentration (CC50) at 3 days in “in vitro” is above 100 µM.

With `CS(=O)(=O)CCCn1c(Cn2c(=O)n(C3CC3)c3c(Cl)cncc32)cc2cc(Cl)ccc21` [Compound P3], in the data set on rgRSV224 virus, the EC50 worked out at 19.9 nM. Further, in “in vitro”, the half-maximal cytotoxic concentration (CC50) at 3 days is above 100 µM.

For the compound `Cc1cncc2c1n(C1CC1)c(=O)n2Cc1cc2cc(Cl)ccc2n1CCCS(C)(=O)=O` [Compound P4], the half-maximal effective concentration (EC50) in the data set with rgRSV224 virus stood at 19.9 nM. Further, the CC50 at 3 days in “in vitro” was above 100 µM.

Turning to `CS(=O)(=O)CCCn1c(Cn2c(=O)n(CC(F)(F)F)c3c(Cl)cncc32)cc2cc(Cl)ccc21` [Compound P5, 7-chloro-3-((5-chloro-1-(3-(methylsulfonyl)propyl)-1H-indol-2-yl)-methyl)-1-(2,2,2-trifluoroethyl)-1H-imidazo[4,5-c]pyridin-2(3H)-one], the EC50 in the data set with rgRSV224 virus stood at 25.1 nM. This compound also registered a CC50 at 3 days in “in vitro” of 31.6 µM.

For `CS(=O)(=O)CCCn1c(Cn2c(=O)n(C3CC3)c3c(Cl)cccc32)cc2cc(Cl)ccc21` [Compound P6], the EC50 in the data set on rgRSV224 virus is 631 nM. Also, the CC50 at 3 days in “in vitro” is 31.6 µM.

Compound `O=c1n(Cc2cc3cc(Cl)ccc3n2CCCC(F)(F)F)c2cccc(Cl)c2n1CC(F)(F)F` [Compound P7, 4-chloro-1-((5-chloro-1-(4,4,4-trifluorobutyl)-1H-indol-2yl)methyl)-3-(2,2,2-trifluoroethyl)-1H-benzo [d]imidazol-2(3H)-one] yielded a half-maximal cytotoxic concentration (CC50) at 3 days in “in vitro” above 100 µM.

For the compound `Cc1cncc2c1n(CC(F)(F)F)c(=O)n2Cc1cc2cc(Cl)ccc2n1CCCS(C)(=O)=O` [Compound P8, 3-((5-chloro-1-(3-(methylsulfonyl)propyl)-1H-indol-2-yl)methyl)-7-methyl-1-(2,2,2-trifluoroethyl)-1H-imidazo[4,5-c]pyridin-2(3H)-one], the EC50 in the data set with rgRSV224 virus was found to be 100 nM. Moreover, the CC50 at 3 days in the data set “in vitro” amounted to 50.1 µM.

Take `CC(C)CCn1c(Cn2c(=O)n(C3CC3)c3c(Cl)cccc32)nc2nc(Cl)ccc21` [Compound P9, 4-chloro-1-((5-chloro-1-isopentyl-1H-imidazo[4,5-b]pyridin-2-yl)-methyl)-3-cyclopropyl-1H-benzo[d]imidazol-2(3H)-one]: in the data set on rgRSV224 virus, the EC50 amounted to 794 nM. For the same compound, the cytotoxic concentration (CC50) at 3 days in the data set “in vitro” is above 25 µM.

`Cc1cccc2c1n(C1CC1)c(=O)n2Cc1nc2nc(Cl)ccc2n1CCC(C)C` [Compound P10, 1-((5-chloro-1-isopentyl-1H-imidazo[4,5-b]pyridin-2-yl)methyl)-3-cyclopropyl-4-methyl-1H-benzo[d]imidazol-2(3H)-one]: the concentration giving a half-maximal response (EC50) in the data set with rgRSV224 virus turned out to be 398 nM. In “in vitro”, this compound had a CC50 at 3 days above 50 µM.

In the case of `Cc1cccc2c1n(C1CC1)c(=O)n2Cc1cc2nc(Cl)ccc2n1CCCC(F)(F)F` [Compound P11, 1-((5-chloro-1-(4,4,4-trifluorobutyl)-1H-pyrrolo[3,2-b]pyridin-2-yl)-methyl)-3-cyclopropyl-4-methyl-1H-benzo[d]imidazol-2(3H)-one], the EC50 in the data set on rgRSV224 virus came to 6310 nM. The compound further showed a half-maximal cytotoxic concentration (CC50) at 3 days in the data set “in vitro” of 12.6 µM.
